We go through ten molecules from patent US6939707B2, “Isolated nucleic acid molecules which encode GAGE genes and uses thereof” (Ludwig Institute for Cancer Research, priority 1993, dated 2005).

Ends that are not written are not given here.

Common to all, as to format: cell-based, human
For series [1], the system named is CTL 76/6. Description: TNF release by CTL 76/6 on peptide-pulsed COS-7 cells transfected with HLA-Cw6 cDNA. Conditions: peptide 20 ug/ml, 90 minutes at 37° C., 3000 CTLs, TNF in supernatant after eighteen hours tested on WEHI-164-13 cells. On the procedure:
Each peptide was pulsed into COS-7 cells previously transfected with HLA-Cw6 cDNA, and combined with CTL 76/6 to determine if TNF release would be induced. Peptides (20 ug/ml) were added to COS-7 cells which had been transfected with the HLA-Cw6 cDNA twenty-four hours previously After incubation at 37° C. for 90 minutes, medium was discarded, and 3000 CTLs were added in 100 microliters of medium, containing 25 units/ml of IL-2. Eighteen hours later, TNF content of supernatant was tested via determining toxicity on WEHI-164-13 cells. […] The second peptide was used for further experiments.

Another series has as its system HLA-A29. As to the kind of experiment: 51Cr release lytic assay with GAGE-3 to 6 derived peptides (HLA-A29). Conditions: FIG. 8; successive deletions of SEQ ID NO: 21.
A further series concerns LB33-EBV cells. Description: 51Cr release lysis of peptide-incubated LB33-EBV cells (HLA-Cw6 positive) by CTL 76/6. The following applies: CTL 76/6, effector:target ratio 10:1, four hours at 37° C., varying peptide concentration (FIG. 3). On the procedure: The lysis assay employed was a chromium release assay following Herin et at., Int. J. Cancer 39;390-396 (1987), the disclosure of which is incorporated by reference. The assay, however, is described herein. The target melanoma cells were grown in vitro, and then resuspended at 10^7 cells/ml in DMEM, supplemented with 10 mM Hepes and 30% FCS, and incubated for 45 minutes at 37° C. with 200 μCi/ml of Na(^51Cr)O4. Labeled cells were washed three times with DMEM supplemented with 10 mM Hepes. These were then resuspended in DMEM supplemented with 10 mM Hepes and 10% FCS, after which 100 ul aliquots containing 10^3 cells, were distributed into 96 well microplates. Samples of PBLs were added in 100 ul of the same medium, and assays were earned out in duplicate. Plates were centrifuged for 4 minutes at 100 g, and incubated for four hours at 37° C. in an 8% CO2 atmosphere.
Plates were centrifuged again, and 100 ul aliquots of supernatant were collected and counted. Percentage of ^51Cr release was calculated as follows: [formula] where ER is observed, experimental ^51Cr release, SR is spontaneous release measured by incubating 10^3 labeled cells in 200 ul of medium alone, and MR is maximum release, obtained by adding 100 ul 0.3% Triton X-100 to target cells.
Various peptides based upon SEQ ID NO: 13 were synthesized, and tested, some of which are presented below. To carry out these tests ^51Cr labelled LB33-EBV cells, which are HLA-Cw6 positive, were incubated with one of the following peptides:
Levels of lysis for positive (“F^+”, MZ2-MEL.3.1), and negative (“F”; MZ2-MEL.2.2.5) control cells are indicated, in FIG. 3.

A further series relates to HLA-Cw6 positive cells. Description: Lysis of peptide-pulsed HLA-Cw6 positive cells by CTL 82/31. The following applies: HLA-Cw6 positive cells pulsed with peptide; results not reported in detail. The protocol: In results not reported here, a second CTL was tested (CTL 82/31).
Series [2] relates to CTL 76/6. As to the kind of experiment: TNF release / recognition by CTL 76/6 of COS cells cotransfected with GAGE cDNA and HLA-Cw6 cDNA. The following applies: COS cells transfected with cDNA together with HLA-Cw6 cDNA (FIG. 2, FIG. 6). On the procedure:
Following preparation of the library described in Example 3, the cDNA was transfected into eukaryotic cells. The transfections, described herein, were carried out in duplicate. Samples of COS-7 cells were seeded, at 15,000 cells/well into tissue culture flat bottom microwells, in Dulbecco's modified Eagles Medium (“DMEM”) supplemented with 10% fetal calf serum. The cells were incubated overnight at 37° C., medium was removed and then replaced by 50 μl/well of DMEM medium containing 10% Nu serum, 400 μg/ml DEAE-dextran, and 100 μM chloroquine, plus 100 ng of the plasmids. […] As a result, cDNA for each of the HLA molecules which could present the antigen (A1, B37, Cw6) was used, separately, to cotransfect the cells. Specifically, one of 28 ng of the gene encoding HLA-A1 cloned into pCD-SRα, 50 ng of cDNA for HLA-B37 in pcDNA 1/Amp, or 75 ng of cDNA for HLA-Cw6 in pcDNAI-Amp, using the same protocols as were used for transfeclion with the library.
Transfection was carried out in duplicate wells, but only 500 pools of the HLA-Cw6 transfectants could be tested in single wells. Following four hours of incubation at 37° C., the medium was removed, and replaced by 50 μl of PBS containing 10% DMSO. This medium was removed after two minutes and replaced by 200 μl of DMEM supplemented with 10% FCS.
(§1) Following this change in medium, COS cells were incubated for 24-48 hours at 37° C. Medium was then discarded, and 1000-3000 cells of CTL clone 76/6 were added, in 100 μl of Iscove's medium containing 10% pooled human serum supplemented with 20-30 U/ml of recombinant IL-2. Supernatant was removed after 24 hours, and TNF content was determined in an assay on WEHI cells, as described by Traversari et al., Immunogenetics 35: 145-152 (1992), the disclosure of which is incorporated by reference.
The bacteria of the selected pool were cloned, and 600 clones were tested. Plasmid DNA was extracted therefrom, transfected into a new sample of COS cells in the same manner as described supra, and the cells were again tested for stimulation of CTL clone 76/6. Ninety-four positive clones were found. One of these, referred to as cDNA clone 2D6, was tested further. In a comparative test COS cells were transfected with cDNA clone 2D6 and the HLA-Cw6 cDNA, HLA-Cw6 cDNA alone, or cDNA 2D6 alone. Control cell lines MZ2-MEL F and MZ2-MEL F^+ were also used. TNF release into CTL supernatant was measured by testing it on WEHI cells, as referred to supra. The number of surviving WEHI cells was measured by optical density after incubation of the cells with MTT.
To assess whether the change at position 2 affected the antigenicity of the peptide, cDNA of the 6 GAGE cDNAs were individually transfected into COS cells together with the cDNA of HLA-Cw6, and the transfectants were tested for recognition by CTL 76/6 as described, supra. Only GAGE-1 and GAGE-2 transfected cells were recognized, showing that the modified peptide encoded by GAGE-3, 4, 5 and 6 was not antigenic in the context of this experiment.

A further series deals with CTL 22/23. As to the kind of experiment: TNF production by CTL 22/23 on COS-7 cells cotransfected with HLA-A29 and GAGE cDNA. Conditions: COS-7 cells transfected with HLA-A29 and the cDNA, 24 hours (FIG. 7). The protocol: as §1
Once positive HLA-A29 clones were isolated, these were transfected into COS-7 using the DEAE-dextran chloroquine method out supra. In brief, 1.5×10^4 COS-7 cells were treated with 50 ng of plasmid pcDNA-I/Amp containing HLA-A29, and 100 ng of cDNA containing cDNA for one of the GAGE sequences mentioned supra, or one of the prior art MAGE or BAGE sequences in plasmid pcDNAα-I/Amp or pcDSR-α, respectively. The transfectants were then incubated for 24 hours at 37° C.
The transfectants were then tested for their ability to stimulate TNF production by CTLs, using the assay explained at the end of example, 4, supra.

On to MSWRGRSTYRPRPRR [SEQ ID NO: 12], for which, in the series on CTL 76/6 [1], the TNF induced entry is on record as “less than 10 pg/ml”.

On to RSTYYWPRPRRYVQ [SEQ ID NO: 21], for which the “ability to provoke lysis (51Cr release)” value with HLA-A29 is given as “did provoke lysis”.

Turning to TRPRPRRYV [SEQ ID NO: 6], the “CTL lysis (51Cr release)” value in the series with LB33-EBV cells is listed as “induced CTL lysis albeit to a lesser extent”.

For the molecule TYRPRPRRY [SEQ ID NO: 5], the “CTL lysis (51Cr release)” value in the series on LB33-EBV cells is given as “induced CTL lysis albeit to a lesser extent”.

In the case of TYRPRPRRYVEPPEMI [SEQ ID NO: 13], the TNF induced entry with CTL 76/6 [1] was “more than 30 pg/ml”.

As to “Tyr Tyr Trp Pro Arg Pro Arg Arg Tyr [SEQ ID NO: 22]”, the “ability to provoke lysis (51Cr release)” value in the series with HLA-A29 was “shortest peptide to provoke lysis”.

Consider “YRPRPRRY [SEQ ID NO: 4, octamer tumor rejection antigen presented by HLA-Cw6]”, for which the “lysis by second CTL (CTL 82/31)” value in the series with HLA-Cw6 positive cells is “lysed HLA-Cw6 positive cells”. Further, in the series on LB33-EBV cells, the “CTL lysis (51Cr release)” value is listed as “the best peptide”.

B1: GAGE-6: cDNA highly related to GAGE, from MZ2-MEL.43 library (nucleic acid)
DNA: GCCAGGGAGCTGTGAGGCAGTGCTGTGTGGTTCCTGCCGTCCGGACTCTTTTTCCTCTACTGAGATTCATCTGTGTGAAATATGAGTTGGCGAGGAAGATCGACCTATTATTGGCCTAGACCAAGGCGCTATGTACAGCCTCCTGAAGTGATTGGGCCTATGCGGCCCGAGCAGTTCAGTGATGAAGTGGAACCAGCAACACCTGAAGAAGGGGAACCAGCAACTCAACGTCAGGATCCTGCAGCTGCTCAGGAGGGAGAGGATGAGGGAGCATCTGCAGGTCAAGGGCCGAAGCCTGAAGCTGATAGCCAGGAACAGGGTCACCCACAGACTGGGTGTGAGTGTGAAGATGGTCCTGATGGGCAGGAGGTGGACCCGCCAAATCCAGAGGAGGTGAAAACGCCTGAAGAAGGTGAAAAGCAATCACAGTGTTAAAAGAAGACACGTTGAAATGATGCAGGCTGCTCCTATGTTGGAAATTTGTTCATTAAAATTCTCCCAATAAAGCTTTACAGCCTTCTGCAAAAAAAAAAAAAAAA
As to B1, the “recognition by CTL 76/6 (TNF release)” value in the series on CTL 76/6 [2] is recorded as “not antigenic”. Moreover, in the series with CTL 22/23, the “stimulation of TNF production by CTL clone 22/23” value (“stimulation of TNF production” for short) is “high levels of TNF production”.

B2: GAGE-1: cDNA coding for GAGE tumor rejection antigen precursor, SEQ ID NO: 1 (nucleic acid)
DNA: CTGCCGTCCGGACTCTTTTTCCTCTACTGAGATTCATCTGTGTGAAATATGAGTTGGCGAGGAAGATCGACCTATCGGCCTAGACCAAGACGCTACGTAGAGCCTCCTGAAATGATTGGGCCTATGCGGCCCGAGCAGTTCAGTGATGAAGTGGAACCAGCAACACCTGAAGAAGGGGAACCAGCAACTCAACGTCAGGATCCTGCAGCTGCTCAGGAGGGAGAGGATGAGGGAGCATCTGCAGGTCAAGGGCCGAAGCCTGAAGCTGATAGCCAGGAACAGGGTCACCCACAGACTGGGTGTGAGTGTGAAGATGGTCCTGATGGGCAGGAGATGGACCCGCCAAATCCAGAGGAGGTGAAAACGCCTGAAGAAGAGATGAGGTCTCACTATGTTGCCCAGACTGGGATTCTCTGGCTTTTAATGAACAATTGCTTCTTAAATCTTTCCCCACGGAAACCTTGAGTGACTGAAATATCAAATGGCGAGAGACCGTTTAGTTCCTATCATCTGTGGCATGTGAAGGGCAATCACAGTGTTAAAAGAAGACATGCTGAAATGTTGCAGGCTGCTCCTATGTTGGAAAATTCTTCATTGAAGTTCTCCCAATAAAGCTTTACAGCCTTCTGCAAAGAAAAAAAAAAAA
Consider B2, for which the “recognition by CTL 76/6 (TNF release)” value with CTL 76/6 [2] is given as “recognized”; in the series with CTL 76/6 [2] (listed as cDNA clone 2D6) it was “stimulated TNF release”. Also, in the series with CTL 22/23, the “stimulation of TNF production” value is “do not stimulate CTL clone 22/23”.

B3: GAGE-2: cDNA highly related to GAGE, from MZ2-MEL.43 library (nucleic acid)
DNA: ACGCCAGGGAGCTGTGAGGCAGTGCTGTGTGGTTCCTGCCGTCCGGACTCTTTTTCCTCTACTGAGATTCATCTGTGTGAAATATGAGTTGGCGAGGAAGATCGACCTATCGGCCTAGACCAAGACGCTACGTAGAGCCTCCTGAAATGATTGGGCCTATGCGGCCCGAGCAGTTCAGTGATGAAGTGGAACCAGCAACACCTGAAGAAGGGGAACCAGCAACTCAACGTCAGGATCCTGCAGCTGCTCAGGAGGGAGAGGATGAGGGAGCATCTGCAGGTCAAGGGCCGAAGCCTGAAGCTCATAGCCAGGAACAGGGTCACCCACAGACTGGGTGTGAGTGTGAAGATGGTCCTGATGGGCAGGAGATGGACCCGCCAAATCCAGAGGAGGTGAAAACGCCTGAAGAAGGTGAAAAGCAATCACAGTGTTAAAAGAAGACACGTTGAAATGATGCAGGCTGCTCCTATGTTGGAAATTTGTTCATTAAAATTCTCCCAATAAAGCTTTACAGCCTTCTGCAAAGAAAAAAAAAAAA
As for B3, the “recognition by CTL 76/6 (TNF release)” value in the series on CTL 76/6 [2] is “recognized”. Also, in the series with CTL 22/23, the “stimulation of TNF production” value was “do not stimulate CTL clone 22/23”.
